Test results from patent US7655701B2, “Cycloalkylidene-(ortho substituted phenyl)-acetonitriles and their use as odorants” (Givaudan SA, priority 2005, dated 2010).

Test: Determination of GC-odor threshold values
Details: gas chromatograph with sniff port, panel of trained evaluators; absolute amount delivered at the sniff port
Description: According to standard procedures known to the person skilled in the art, threshold values for volatile perfumery compounds are determined on a gas chromatograph equipped with a sniff port by a panel of trained evaluators. The lowest concentration smelled by each panellist is recorded as the individual threshold value expressed in ng (absolute amount of compound delivered at the sniff port).
Under identical conditions the odour threshold value for the individual compounds was measured.

| SMILES | odour threshold value geometric mean [ng] |
| --- | --- |
| Cc1ccccc1C(C#N)=C1CCCCC1 [Example 1, Cyclohexylidene-o-tolyl-acetonitrile] | 0.12 |
| Cc1ccc(C(C#N)=C2CCCCC2)cc1 [Example 2, Cyclohexylidene-p-tolyl-acetonitrile] | 2.91 |
| Cc1cccc(C(C#N)=C2CCCCC2)c1 [Example 4, Cyclohexylidene-m-tolyl-acetonitrile] | 1.08 |
| N#CC(=C1CCCCC1)c1ccccc1 [Peonile ®, cyclohexylidene-phenyl-acetonitrile] | 0.53 |
